Results reported in patent US8614327B2 (Vertex Pharmaceuticals Incorporated, priority 2004, dated 2013).

Molecular target: T1, ΔF508-CFTR (Homo sapiens, UniProt P13569, DEL508-508)
T1 construct: expressed in transfected cells
Experiment: Membrane potential optical (FRET/VIPR) assay, identification of potentiator compounds
Type: cell-based
Conditions: Table 3, assay not given; for % Activity: relative efficacy
How it was run: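 Double-addition potentiator screen: compound delivered in gluconate-substituted Cl^--free medium, membrane potential followed via CC2-DMPE/DiSBAC2(3) FRET on VIPR. Cells were ΔF508-CFTR-expressing NIH3T3 mouse fibroblasts, held 2 h at 37° C. then 24 h at 27° C. before assay.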

T1 sequence (P13569 with tags, fused parts or gaps DEL508-508): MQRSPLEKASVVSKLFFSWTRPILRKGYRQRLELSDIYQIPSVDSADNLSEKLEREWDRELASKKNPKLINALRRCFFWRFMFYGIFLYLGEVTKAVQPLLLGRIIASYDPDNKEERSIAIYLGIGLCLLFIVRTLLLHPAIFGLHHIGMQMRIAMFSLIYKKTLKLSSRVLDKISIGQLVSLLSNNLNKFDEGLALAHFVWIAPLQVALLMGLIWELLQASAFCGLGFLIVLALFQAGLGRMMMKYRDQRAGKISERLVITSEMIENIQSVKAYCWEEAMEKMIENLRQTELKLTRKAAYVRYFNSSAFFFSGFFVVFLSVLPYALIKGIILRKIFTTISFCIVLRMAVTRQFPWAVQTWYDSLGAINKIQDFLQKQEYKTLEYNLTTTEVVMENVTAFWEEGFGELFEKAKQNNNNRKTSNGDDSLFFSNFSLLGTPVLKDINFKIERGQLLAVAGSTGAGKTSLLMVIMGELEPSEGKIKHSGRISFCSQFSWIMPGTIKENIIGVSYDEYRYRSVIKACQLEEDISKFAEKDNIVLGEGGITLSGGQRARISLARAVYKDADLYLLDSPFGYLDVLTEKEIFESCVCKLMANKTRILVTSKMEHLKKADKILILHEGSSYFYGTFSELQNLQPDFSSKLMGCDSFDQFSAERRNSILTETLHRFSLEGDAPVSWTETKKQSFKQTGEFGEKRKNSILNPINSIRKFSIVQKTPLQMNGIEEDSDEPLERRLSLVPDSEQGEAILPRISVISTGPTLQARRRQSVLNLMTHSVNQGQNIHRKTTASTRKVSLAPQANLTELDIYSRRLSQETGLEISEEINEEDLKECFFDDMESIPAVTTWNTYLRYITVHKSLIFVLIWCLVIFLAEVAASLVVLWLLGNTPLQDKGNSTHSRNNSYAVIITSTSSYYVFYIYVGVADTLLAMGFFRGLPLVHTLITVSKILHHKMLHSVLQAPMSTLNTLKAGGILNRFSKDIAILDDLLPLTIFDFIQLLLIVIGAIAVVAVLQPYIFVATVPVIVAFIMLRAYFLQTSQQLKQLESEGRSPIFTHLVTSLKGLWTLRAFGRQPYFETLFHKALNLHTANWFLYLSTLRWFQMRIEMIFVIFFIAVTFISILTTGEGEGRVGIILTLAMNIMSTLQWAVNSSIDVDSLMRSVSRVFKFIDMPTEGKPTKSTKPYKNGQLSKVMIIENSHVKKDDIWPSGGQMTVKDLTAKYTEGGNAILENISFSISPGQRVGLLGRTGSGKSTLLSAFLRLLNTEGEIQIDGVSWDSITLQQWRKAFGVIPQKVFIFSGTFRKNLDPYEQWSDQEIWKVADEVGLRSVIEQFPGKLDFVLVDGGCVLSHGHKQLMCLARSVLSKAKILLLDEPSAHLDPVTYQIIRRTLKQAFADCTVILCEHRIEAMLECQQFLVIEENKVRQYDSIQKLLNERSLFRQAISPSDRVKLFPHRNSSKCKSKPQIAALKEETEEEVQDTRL

| Structure (SMILES) | EC50 | % Activity |
| --- | --- | --- |
| O=C(Nc1ccc(Oc2ccccc2)cc1)c1c[nH]c2ccccc2c1=O [Compound 267, 4-oxo-N-(4-phenoxyphenyl)-1H-quinoline-3-carboxamide] | < 10 µM | ++ (between 25% to 100%) |
| CC(C)c1ccc(NC(=O)c2c[nH]c3ccc(F)cc3c2=O)cc1O [Compound 597, 6-fluoro-N-(3-hydroxy-4-isopropyl-phenyl)-4-oxo-1H-quinoline-3-carboxamide] |  | ++ (between 25% to 100%) |
| CCCc1ccc(NC(=O)c2c[nH]c3ccccc3c2=O)cc1N [Compound 160, N-(3-amino-4-propyl-phenyl)-4-oxo-1H-quinoline-3-carboxamide] | < 10 µM | ++ (between 25% to 100%) |
| CCCOc1ccc(N)cc1NC(=O)c1c[nH]c2ccccc2c1=O [Compound 17, N-(5-Amino-2-propoxy-phenyl)-4-oxo-1H-quinoline-3-carboxamide] | < 10 µM | ++ (between 25% to 100%) |
| CCOc1cccc2c(=O)c(C(=O)Nc3ccc(C(C)C)cc3C(F)(F)F)c[nH]c12 [Compound 517, 8-ethoxy-N-[4-isopropyl-2-(trifluoromethyl)phenyl]-4-oxo-1H-quinoline-3-carboxamide] | < 10 µM | + (<25%) |
| O=C(Nc1ccccc1-c1ccc(F)cc1)c1c[nH]c2ccccc2c1=O [Compound 182, N-[2-(4-fluorophenyl)phenyl]-4-oxo-1H-quinoline-3-carboxamide] | < 10 µM | ++ (between 25% to 100%) |
| CCOc1ccc2[nH]cc(C(=O)Nc3cc(O)c(C(C)(C)C)cc3C(C)(C)C)c(=O)c2c1 [Compound 524, 6-ethoxy-N-(5-hydroxy-2,4-ditert-butyl-phenyl)-4-oxo-1H-quinoline-3-carboxamide] | < 10 µM | ++ (between 25% to 100%) |
| CC(C)(C)c1ccc(NC(=O)c2c[nH]c3ccccc3c2=O)cc1C#N [Compound 13, N-(3-cyano-4-tert-butyl-phenyl)-4-oxo-1H-quinoline-3-carboxamide] | < 10 µM | ++ (between 25% to 100%) |
| COc1nc2ccccc2c(OC)c1C(=O)Nc1ccccc1C(C)(C)C [Compound 296, 2,4-dimethoxy-N-(2-tert-butylphenyl)-quinoline-3-carboxamide] | 10 to 25 µM | ++ (between 25% to 100%) |
| CC(C)c1ccc(NC(=O)c2c[nH]c3ccccc3c2=O)cc1N(C)C [Compound 117, N-(3-dimethylamino-4-isopropyl-phenyl)-4-oxo-1H-quinoline-3-carboxamide] | < 10 µM | ++ (between 25% to 100%) |
| O=C(Nc1ccccc1-c1ccc(Cl)c(Cl)c1)c1c[nH]c2ccccc2c1=O [Compound 85, N-[2-(3,4-dichlorophenyl)phenyl]-4-oxo-1H-quinoline-3-carboxamide] | < 10 µM | ++ (between 25% to 100%) |
| O=C(Nc1csc(C(F)(F)F)c1-c1ccccc1)c1c[nH]c2ccccc2c1=O [Compound 708, 4-oxo-N-[4-phenyl-5-(trifluoromethyl)-3-thienyl]-1H-quinoline-3-carboxamide] | < 10 µM | ++ (between 25% to 100%) |
| COc1ccc(-c2ccccc2NC(=O)c2c[nH]c3ccccc3c2=O)cc1 [Compound 305, N-[2-(4-methoxyphenyl)phenyl]-4-oxo-1H-quinoline-3-carboxamide] | < 10 µM | +++ (>100%) |
| CC(=O)Nc1cccc(-c2ccccc2NC(=O)c2c[nH]c3ccccc3c2=O)c1 [Compound 25, N-[2-(3-acetylaminophenyl)phenyl]-4-oxo-1H-quinoline-3-carboxamide] |  | ++ (between 25% to 100%) |
| N#Cc1cc(N2CCCC2)ccc1NC(=O)c1c[nH]c2ccccc2c1=O [Compound 622, N-(2-cyano-4-pyrrolidin-1-yl-phenyl)-4-oxo-1H-quinoline-3-carboxamide] | < 10 µM | ++ (between 25% to 100%) |
| COc1cc(N2CCCC2)ccc1NC(=O)c1c[nH]c2ccccc2c1=O [Compound 675, N-(2-methoxy-4-pyrrolidin-1-yl-phenyl)-4-oxo-1H-quinoline-3-carboxamide] | < 10 µM | ++ (between 25% to 100%) |
| O=C(Nc1ccc(OC(F)(F)F)c(N2CCCCC2)c1)c1c[nH]c2ccccc2c1=O [Compound 696, 4-oxo-N-[3-(1-piperidyl)-4-(trifluoromethoxy)phenyl]-1H-quinoline-3-carboxamide] | < 10 µM | ++ (between 25% to 100%) |
| CCC(CC)(CC)c1cc(F)c(NC(=O)c2cnc3ccccc3c2O)cc1O [Compound 34, N-[4-(1,1-diethylpropyl)-2-fluoro-5-hydroxy-phenyl]-4-hydroxy-quinoline-3-carboxamide] | < 10 µM | ++ (between 25% to 100%) |
| CS(=O)(=O)Nc1cc(NC(=O)c2c[nH]c3ccccc3c2=O)cc(C(F)(F)F)c1 [Compound 441, N-[3-methylsulfonylamino-5-(trifluoromethyl)phenyl]-4-oxo-1H-quinoline-3-carboxamide] |  | ++ (between 25% to 100%) |
| O=C(Nc1ccc(F)cn1)c1c[nH]c2ccccc2c1=O [Compound 477, N-(5-fluoro-2-pyridyl)-4-oxo-1H-quinoline-3-carboxamide] | 25 to 60 µM | + (<25%) |
| O=C(Nc1ccc(C2CCCCC2)cc1)c1c[nH]c2ccccc2c1=O [Compound 140, N-(4-cyclohexylphenyl)-4-oxo-1H-quinoline-3-carboxamide] |  | ++ (between 25% to 100%) |
| COc1cc(NC(=O)c2c[nH]c3ccccc3c2=O)ccc1-n1c(C)ccc1C [Compound 560, N-[4-(2,5-dimethylpyrrol-1-yl)-3-methoxy-phenyl]-4-oxo-1H-quinoline-3-carboxamide] | < 10 µM | ++ (between 25% to 100%) |
| O=C(Nc1ccccc1-c1ccccc1F)c1c[nH]c2ccccc2c1=O [Compound 313, N-[2-(2-fluorophenyl)phenyl]-4-oxo-1H-quinoline-3-carboxamide] | < 10 µM | ++ (between 25% to 100%) |
| O=C(Nc1ccc2c(c1)NCCO2)c1c[nH]c2ccccc2c1=O [Compound 105, 1,4-dihydro-N-(3,4-dihydro-2H-benzo[b][1,4]oxazin-6-yl)-4-oxoquinoline-3-carboxamide] | 10 to 25 µM | ++ (between 25% to 100%) |
| Cc1ccc(NC(=O)c2c[nH]c3ccccc3c2=O)cc1N [Compound 167, N-(3-amino-4-methyl-phenyl)-4-oxo-1H-quinoline-3-carboxamide] | 10 to 25 µM | ++ (between 25% to 100%) |
